Reference: article PMC4889062, “Tachykinin-Related Peptides Share a G Protein-Coupled Receptor with Ion Transport Peptide-Like in the Silkworm Bombyx mori” (PLoS ONE, 2016)
Peptide text beside a SMILES is read from it.

Experiments:
[1] = molecular target: T1, BNGR-A24 (Bombyx mori, UniProt B3XXN7); test: cell-based
T1 sequence (B3XXN7 1-391): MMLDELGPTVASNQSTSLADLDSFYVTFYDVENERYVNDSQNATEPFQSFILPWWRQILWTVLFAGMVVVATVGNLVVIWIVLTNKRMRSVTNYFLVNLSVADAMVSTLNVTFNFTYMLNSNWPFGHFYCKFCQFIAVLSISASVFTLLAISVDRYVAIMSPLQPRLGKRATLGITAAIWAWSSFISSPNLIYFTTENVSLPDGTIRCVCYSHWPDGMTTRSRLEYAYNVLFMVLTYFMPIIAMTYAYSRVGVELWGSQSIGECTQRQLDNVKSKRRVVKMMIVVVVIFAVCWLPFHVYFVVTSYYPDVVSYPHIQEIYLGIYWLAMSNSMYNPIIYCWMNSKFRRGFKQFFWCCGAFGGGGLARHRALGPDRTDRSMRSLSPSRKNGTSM
Description: (§1) The assays were performed as previously reported. Briefly, HEK293T cells seeded on a glass-based dish were co-transfected with pME18S plasmids carrying BNGRs and the promiscuous G protein alpha subunit, Gα15. Following 24 h incubation, the transfected cells were loaded with 500 μL of a Ca^2+ indicator solution (2 μM Fluo-4 AM [Dojin Chemicals, Kumamoto, Japan] and 0.01% Pluronic-F 127 [Anaspec, San Jose, CA, USA] in Opti-MEM [Life Technologies]) and incubated at 37°C for 30 min in a dark room. The cells were washed twice with Ringer’s solution and then 800 μL Ringer’s solution was added to the cells. Within a given run time, 100 μL of the following compounds were added sequentially: Ringer’s solution (at 15 s, vehicle control), the peptide of interest or a mixture with its potential competitor (at 60 s), and 100 μM ATP (at 120 s, an experimental control). Fluo-4-derived fluorescence was chronologically monitored using a confocal laser-scanning microscope (FV-1000D; Olympus, Tokyo, Japan), with the preinstalled dye mode for Fluo-3. At least three independent experiments were performed. Dose-response curves were generated and EC50 values were calculated from the obtained fitting curves.
In order to evaluate whether the three TRP receptor candidates, BNGR-A24, -A32, and -A33, function as receptors for B. mori TRPs, the response of these three BNGRs to chemically synthesized TRPs was examined using the Ca^2+ imaging assay.
The response of HEK293T cells co-expressing BNGR-A24 (A) or BNGR-A32 (B) and promiscuous mouse Gα15 to the TRPs was monitored using the Ca^2+ imaging technique. Dose-response curves are depicted as relative fluorescent intensity (mean ± S.D.; n = 3).

[2] = tested on: BmN cells (BNGR-A24-expressing); test: Competitive cGMP assay in BmN cells; format: cell-based, Bombyx mori; details: 30 min, IBMX
Description: BmN cells were plated in 12-well tissue culture plates (2 × 10^5 cells/well; Asahi glass, Yokohama, Japan) and maintained in normal growth medium (TC-100 [Applichem, Darmstadt, Germany], 10% FBS, and 50 μg/mL gentamycin). At 3 days post-seeding, the cells were pre-incubated in 800 μL of assay medium (TC-100 supplemented with 1 mM 1-methyl-3-isobutylxanthine [IBMX; Sigma-Aldrich, Tokyo, Japan]) and 1 mM phenylmethylsulfonyl fluoride for 10 min at 28°C. Following pre-incubation, 100 μL of a potential competitor and 100 μL of the peptide of interest were added sequentially to the medium and incubated at 28°C for 30 min. […] The extracted cAMP and cGMP were quantified in duplicate using a cAMP ELISA kit (Cayman Chemicals, Ann Arbor, MI, USA) and a cGMP EIA system (GE Healthcare, Hino, Japan), respectively. […]
Since ITPL and TK-4 are competitive ligands of BNGR-A24, we hypothesized that TK-4 might inhibit the cGMP signal induced by ITPL via the binding of ITPL to BNGR-A24. To confirm this hypothesis, we added an excess of TK-4 to BmN cells exposed to rITPL and evaluated the stimulatory effect of ITPL on the cGMP signal.
Fig 5 Effects of TK-4, rITPL, and spantide I on cyclic nucleotide levels in BmN cells. Intracellular cGMP (A) and cAMP (B) levels in BmN cells following 30-min incubation with the peptide and reagent of interest at the indicated concentrations were measured. […]

[3] = molecular target: T1, BNGR-A24; test: Competitive binding assay, RR-labeled ligands and CHO cells expressing EGFP-fused BNGR-A24; details: CHO cells, EGFP-fused BNGR-A24, 4°C
Description: Binding assays were performed as previously reported. Briefly, CHO cells were transfected with 2 μg of pME18S plasmids harboring enhanced green fluorescent protein (EGFP)-fused BNGR cDNA. The binding assay was performed with cells 24 h post transfection. The cells were pre-incubated at 4°C for 30 min prior to the assay to minimize receptor internalization by ligand binding. Following the addition of 50 μL of non-labeled ligand as a potential competitor, 50 μL of RR-labeled ligand was added. Subsequent to incubation at 4°C for 60 min, the cells were washed twice with an ice-cold fixation buffer (4% formaldehyde in PBS) and then 500 μL of the fixation buffer was added. The fluorescence derived from EGFP and RR was observed using a confocal microscope (FV-1000D) with preinstalled dye modes for EGFP and DsRed, respectively. The fluorescent data obtained from six individual cells of at least two independent experiments were analyzed using Fluoview software (Olympus).
Following 30-min exposure of the cells to RR-labeled rITPL or TK-4, both red fluorescence (derived from the RR-labeled ligands) and green fluorescence (derived from EGFP C-terminally fused to BNGR-A24) were observed on the cell surface, indicating ligand-receptor binding (Fig 4). […] In this case, the addition of 20 μM rITPL reduced the ligand-derived signal by approximately 90% compared to that observed without the addition of unlabeled ligand.
Fig 4 In vitro competitive binding assay of rITPL and TK-4 to BNGR-A24. (A–D) Microscopic imaging. The binding of RR-labeled ligands (A and C, rITPL; B and D, TK-4) and CHO cells expressing EGFP-fused BNGR-A24 was examined in the presence of potential competitors (A, TK-4; B, rITPL; C and D, spantide I [SP]). EGFP and RR fluorescences were observed by confocal microscopy. Co-localization is presented as yellow in the merged images (Merge). Representative images of cells from at least two independent experiments are shown. (E–H) Relative fluorescent intensity obtained from experiment images (A)–(D), respectively. […]

[4] = molecular target: T2, BNGR-A32 (Bombyx mori, UniProt B3XXP5); test: Ca2+ imaging assay of BNGR-A32 in HEK293T cells co-expressing Gα15; format: cell-based; details: HEK293T cells co-expressing BNGR-A32 and promiscuous mouse Gα15; Fluo-4 Ca2+ imaging; from fitted dose-response curves, n = 3
T2 sequence (B3XXP5 1-372): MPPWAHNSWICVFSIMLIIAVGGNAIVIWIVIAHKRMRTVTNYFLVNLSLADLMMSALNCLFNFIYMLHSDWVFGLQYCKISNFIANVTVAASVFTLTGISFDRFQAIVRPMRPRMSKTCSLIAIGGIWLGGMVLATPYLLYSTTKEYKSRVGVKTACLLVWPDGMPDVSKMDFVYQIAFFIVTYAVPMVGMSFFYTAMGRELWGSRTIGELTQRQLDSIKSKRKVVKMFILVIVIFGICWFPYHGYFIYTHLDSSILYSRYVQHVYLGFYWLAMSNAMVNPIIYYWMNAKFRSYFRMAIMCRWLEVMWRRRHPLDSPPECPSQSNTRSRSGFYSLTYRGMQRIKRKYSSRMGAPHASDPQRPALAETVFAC
Description: as §1, with “curves. […]” for “curves.”
The response of HEK293T cells co-expressing BNGR-A24 (A) or BNGR-A32 (B) and promiscuous mouse Gα15 to the TRPs was monitored using the Ca^2+ imaging technique. […]

[5] = molecular target: EGFP-fused BNGR-A24 (Bombyx mori neuropeptide G protein-coupled receptor A24) (Bombyx mori) (UniProt B3XXN7)
[6] = molecular target: BNGR-A32 (Bombyx mori neuropeptide G protein-coupled receptor A32) (Bombyx mori)
[7] = molecular target: EGFP-fused BNGR-A24 (Bombyx mori neuropeptide G protein-coupled receptor A24) (Bombyx mori) (UniProt B3XXN7); test: fluorescent-ligand binding on cells (confocal microscopy); CHO cells expressing EGFP-fused BNGR-A24, pre-incubated at 4°C for 30 min; unlabeled competitor added, then RR-labeled ligand; 4°C for 60 min; washed and fixed (4% formaldehyde in PBS); RR fluorescence normalized by EGFP
[8] = molecular target: T1, BNGR-A24; test: Ca2+ imaging assay of BNGR-A24 with competitor added together with the ligand; format: cell-based
Description: The assays were performed as previously reported. […] At least three independent experiments were performed.
Next, we examined the effect of simultaneous addition of spantide I and rITPL on ligand competition. The dose-response curve of 10–300 nM rITPL shifted in a similar manner to that observed for TK-4.
Fig 3 Effect of spantide I on the response of BNGR-A24 to rITPL and TK-4. Spantide I (SP), a potential competitor, was added together with rITPL or TK-4 and the response of BNGR-A24 was monitored using the Ca^2+ imaging assay. Dose-response curves of the responses are presented as relative fluorescent intensity (mean ± S.D.; n = 3). Asterisks indicate significant differences for treatment with the same ligand without spantide I (P < 0.05; Dunnett’s test).

Compound: CC[C@H](C)[C@H](N)C(=O)N1CCC[C@H]1C(=O)N[C@@H](CCC(N)=O)C(=O)NCC(=O)N[C@@H](Cc1ccccc1)C(=O)N[C@@H](CC(C)C)C(=O)NCC(=O)N[C@@H](CCSC)C(=O)N[C@@H](CCCNC(=N)N)C(N)=O [TK-1] (H-IPQGFLGMR-NH2; N-terminus assumed)
- EC50 [1]: 7100 pM

Compound: CSCC[C@H](NC(=O)[C@H](CC(N)=O)NC(=O)[C@H](C)NC(=O)[C@H](C)N)C(=O)N[C@@H](Cc1c[nH]cn1)C(=O)N[C@@H](CCC(N)=O)C(=O)N[C@@H](Cc1ccccc1)C(=O)N[C@@H](Cc1ccc(O)cc1)C(=O)NCC(=O)N[C@H](C(=O)N[C@@H](CCCNC(=N)N)C(N)=O)C(C)C [TK-3] (H-AANMHQFYGVR-NH2; N-terminus assumed)
- EC50 [1]: 790 pM

Compound: CC[C@H](C)[C@H](NC(=O)[C@H](Cc1ccccc1)NC(=O)[C@H](CCCCN)NC(=O)CNC(=O)[C@H](CCCNC(=N)N)NC(=O)[C@@H](NC(=O)[C@H](CO)NC(=O)[C@H](CC(C)C)NC(=O)[C@H](CC(=O)O)NC(=O)[C@H](Cc1ccc(O)cc1)NC(=O)[C@@H]1CCCN1)[C@@H](C)CC)C(=O)NCC(=O)N[C@H](C(=O)N[C@@H](CCCNC(=N)N)C(N)=O)C(C)C [TK-4] (H-PYDLSIRGKFIGVR-NH2; N-terminus assumed)
- Effect on rITPL-induced cGMP levels ([2]; BmN cells exposed to 100 nM rITPL, ≥3 μM TK-4 added as competitor): significant decrease
- Intracellular cGMP levels ([2]; BmN cells, peptide alone at concentrations as high as 10 μM, 28°C, cGMP EIA): failed to increase
- Fluorescence of RR-labeled rITPL on the cell surface ([3]; 1–100 μM unlabeled TK-4 added before RR-labeled rITPL): gradually decreased
- EC50 [1]: 270 pM

Compound: CSCC[C@H](NC(=O)CNC(=O)[C@H](Cc1ccccc1)NC(=O)[C@H](Cc1ccccc1)NC(=O)CNC(=O)[C@H](CCSC)NC(=O)[C@H](CCC(N)=O)NC(=O)CN)C(=O)N[C@@H](CCCNC(=N)N)C(N)=O [TK-5] (H-GQMGFFGMR-NH2)
- EC50 [4]: 480 pM
- EC50 [1]: 2300 pM

Compound: B. mori tachykinin-related peptide TK-1
- EC50 of the Ca2+ imaging response (Fluo-4) of HEK293T cells co-expressing BNGR-A24 and Galpha15 [5]: 7100 pM

Compound: B. mori tachykinin-related peptide TK-2
- EC50 of the Ca2+ imaging response (Fluo-4) of HEK293T cells co-expressing BNGR-A24 and Galpha15 [5]: 490 pM

Compound: B. mori tachykinin-related peptide TK-3
- EC50 of the Ca2+ imaging response (Fluo-4) of HEK293T cells co-expressing BNGR-A24 and Galpha15 [5]: 790 pM

Compound: B. mori tachykinin-related peptide TK-4
- EC50 of the Ca2+ imaging response (Fluo-4) of HEK293T cells co-expressing BNGR-A24 and Galpha15 [5]: 270 pM

Compound: B. mori tachykinin-related peptide TK-5
- EC50 of the Ca2+ imaging response (Fluo-4) of HEK293T cells co-expressing BNGR-A32 and Galpha15 [6]: 480 pM
- EC50 of the Ca2+ imaging response (Fluo-4) of HEK293T cells co-expressing BNGR-A24 and Galpha15 [5]: 2300 pM

Compound: Recombinant B. mori ion transport peptide-like (rITPL) (ligand)
- percent reduction of the RR-labeled TK-4 signal at 20 uM rITPL [7]: 90%

Compound: spantide I
- Effect on response of BNGR-A24 to rITPL ([8]; 50 μM spantide I added with 10–300 nM rITPL, n = 3, vs no competitor): significantly lower
- Effect on response of BNGR-A24 to TK-4 ([8]; simultaneous treatment with 10 μM or 50 μM spantide I, n = 3, Dunnett's test P < 0.05): significantly decreased
- Fluorescence derived from RR-labeled TK-4 ([3]; 50 μM spantide I as competitor): nearly complete quenching
- Fluorescence derived from RR-labeled rITPL ([3]; 50 μM spantide I as competitor): nearly complete quenching
